Results as given in the NIST ThermoML archive (doi:10.1021/je100832h).

Assays:
[1] = xn = mol fraction of the nth substance listed; conditions: 101.32 kPa, Liquid, Vibrating tube method
[2] = excess molar enthalpy (molar enthalpy of mixing); xn = mol fraction of the nth substance listed; conditions: 101 kPa, Liquid, Calvet calorimetry

CCCCCCCCCC [decane] + CCOC(C)=O
Conditions | excess molar enthalpy [kcal/mol] | mass density [kg/m3]
[1], 291.15 K, x2 = 0 | – | 731.22
[1], 291.15 K, x2 = 0.0174 | – | 732.37
[1], 291.15 K, x2 = 0.0789 | – | 736.87
[1], 291.15 K, x2 = 0.1457 | – | 742.14
[1], 291.15 K, x2 = 0.2494 | – | 751.47
[1], 291.15 K, x2 = 0.3508 | – | 762.27
[1], 291.15 K, x2 = 0.4382 | – | 773.02
[1], 291.15 K, x2 = 0.5149 | – | 783.83
[1], 291.15 K, x2 = 0.5781 | – | 793.79
[1], 291.15 K, x2 = 0.6446 | – | 805.51
[1], 291.15 K, x2 = 0.7051 | – | 817.52
[1], 291.15 K, x2 = 0.7648 | – | 830.7
[1], 291.15 K, x2 = 0.8069 | – | 841.06
[1], 291.15 K, x2 = 0.8553 | – | 854.05
[1], 291.15 K, x2 = 0.8914 | – | 864.68
[1], 291.15 K, x2 = 0.9318 | – | 877.69
[1], 291.15 K, x2 = 0.9794 | – | 894.7
[1], 298.15 K, x2 = 0 | – | 726.2
[1], 298.15 K, x2 = 0.0319 | – | 728.3
[1], 298.15 K, x2 = 0.1165 | – | 734.6
[1], 298.15 K, x2 = 0.2048 | – | 741.9
[1], 298.15 K, x2 = 0.2835 | – | 749.3
[1], 298.15 K, x2 = 0.3475 | – | 756.1
[1], 298.15 K, x2 = 0.4252 | – | 765.35
[1], 298.15 K, x2 = 0.4873 | – | 773.59
[1], 298.15 K, x2 = 0.5417 | – | 781.58
[1], 298.15 K, x2 = 0.6031 | – | 791.53
[1], 298.15 K, x2 = 0.6469 | – | 799.34
[1], 298.15 K, x2 = 0.6957 | – | 808.8
[1], 298.15 K, x2 = 0.7407 | – | 818.3
[1], 298.15 K, x2 = 0.78 | – | 827.2
[1], 298.15 K, x2 = 0.8179 | – | 836.5
[1], 298.15 K, x2 = 0.8516 | – | 845.4
[1], 298.15 K, x2 = 0.8865 | – | 855.4
[1], 298.15 K, x2 = 0.9207 | – | 866.1
[1], 298.15 K, x2 = 0.9604 | – | 879.5
[1], 318.15 K, x2 = 0 | – | 710.9
[1], 318.15 K, x2 = 0.0117 | – | 711.52
[1], 318.15 K, x2 = 0.0758 | – | 715.68
[1], 318.15 K, x2 = 0.1539 | – | 721.34
[1], 318.15 K, x2 = 0.2456 | – | 728.94
[1], 318.15 K, x2 = 0.2848 | – | 732.56
[1], 318.15 K, x2 = 0.3468 | – | 738.71
[1], 318.15 K, x2 = 0.3714 | – | 741.31
[1], 318.15 K, x2 = 0.4391 | – | 749.04
[1], 318.15 K, x2 = 0.516 | – | 758.96
[1], 318.15 K, x2 = 0.5314 | – | 761.13
[1], 318.15 K, x2 = 0.5878 | – | 769.54
[1], 318.15 K, x2 = 0.6448 | – | 778.92
[1], 318.15 K, x2 = 0.694 | – | 787.77
[1], 318.15 K, x2 = 0.7127 | – | 791.38
[1], 318.15 K, x2 = 0.7829 | – | 806.2
[1], 318.15 K, x2 = 0.8204 | – | 815
[1], 318.15 K, x2 = 0.8538 | – | 823.5
[1], 318.15 K, x2 = 0.8886 | – | 833
[1], 318.15 K, x2 = 0.9198 | – | 842.3
[1], 318.15 K, x2 = 0.9553 | – | 853.8
[1], 328.15 K, x2 = 0 | – | 703.34
[1], 328.15 K, x2 = 0.0347 | – | 705.37
[1], 328.15 K, x2 = 0.1351 | – | 711.99
[1], 328.15 K, x2 = 0.234 | – | 719.58
[1], 328.15 K, x2 = 0.3322 | – | 728.47
[1], 328.15 K, x2 = 0.4166 | – | 737.37
[1], 328.15 K, x2 = 0.4853 | – | 745.64
[1], 328.15 K, x2 = 0.5551 | – | 755.09
[1], 328.15 K, x2 = 0.6186 | – | 764.72
[1], 328.15 K, x2 = 0.6774 | – | 774.65
[1], 328.15 K, x2 = 0.7271 | – | 783.92
[1], 328.15 K, x2 = 0.7735 | – | 793.4
[1], 328.15 K, x2 = 0.8619 | – | 814.12
[1], 328.15 K, x2 = 0.9041 | – | 825.66
[1], 328.15 K, x2 = 0.9511 | – | 840.13
[2], 291.15 K, x2 = 0.0986 | 0.146 | –
[2], 291.15 K, x2 = 0.1909 | 0.246 | –
[2], 291.15 K, x2 = 0.2646 | 0.318 | –
[2], 291.15 K, x2 = 0.3377 | 0.372 | –
[2], 291.15 K, x2 = 0.4032 | 0.404 | –
[2], 291.15 K, x2 = 0.4608 | 0.422 | –
[2], 291.15 K, x2 = 0.5067 | 0.429 | –
[2], 291.15 K, x2 = 0.5523 | 0.433 | –
[2], 291.15 K, x2 = 0.5924 | 0.428 | –
[2], 291.15 K, x2 = 0.6147 | 0.421 | –
[2], 291.15 K, x2 = 0.6541 | 0.409 | –
[2], 291.15 K, x2 = 0.7009 | 0.389 | –
[2], 291.15 K, x2 = 0.7512 | 0.357 | –
[2], 291.15 K, x2 = 0.7956 | 0.317 | –
[2], 291.15 K, x2 = 0.8448 | 0.268 | –
[2], 291.15 K, x2 = 0.8927 | 0.208 | –
[2], 291.15 K, x2 = 0.9375 | 0.14 | –
[2], 291.15 K, x2 = 0.9684 | 0.0715 | –
[2], 298.15 K, x2 = 0.0884 | 0.119 | –
[2], 298.15 K, x2 = 0.177 | 0.216 | –
[2], 298.15 K, x2 = 0.2587 | 0.289 | –
[2], 298.15 K, x2 = 0.3362 | 0.345 | –
[2], 298.15 K, x2 = 0.4005 | 0.377 | –
[2], 298.15 K, x2 = 0.4566 | 0.398 | –
[2], 298.15 K, x2 = 0.5101 | 0.408 | –
[2], 298.15 K, x2 = 0.5578 | 0.408 | –
[2], 298.15 K, x2 = 0.5984 | 0.402 | –
[2], 298.15 K, x2 = 0.6297 | 0.395 | –
[2], 298.15 K, x2 = 0.6727 | 0.381 | –
[2], 298.15 K, x2 = 0.7191 | 0.357 | –
[2], 298.15 K, x2 = 0.7636 | 0.329 | –
[2], 298.15 K, x2 = 0.8098 | 0.289 | –
[2], 298.15 K, x2 = 0.8591 | 0.24 | –
[2], 298.15 K, x2 = 0.9024 | 0.185 | –
[2], 298.15 K, x2 = 0.9385 | 0.124 | –
[2], 298.15 K, x2 = 0.9744 | 0.0595 | –
[2], 318.15 K, x2 = 0.0892 | 0.136 | –
[2], 318.15 K, x2 = 0.172 | 0.226 | –
[2], 318.15 K, x2 = 0.2474 | 0.3 | –
[2], 318.15 K, x2 = 0.3208 | 0.354 | –
[2], 318.15 K, x2 = 0.3848 | 0.388 | –
[2], 318.15 K, x2 = 0.4412 | 0.409 | –
[2], 318.15 K, x2 = 0.4941 | 0.42 | –
[2], 318.15 K, x2 = 0.5409 | 0.421 | –
[2], 318.15 K, x2 = 0.5801 | 0.417 | –
[2], 318.15 K, x2 = 0.5985 | 0.412 | –
[2], 318.15 K, x2 = 0.6567 | 0.391 | –
[2], 318.15 K, x2 = 0.6942 | 0.374 | –
[2], 318.15 K, x2 = 0.7429 | 0.344 | –
[2], 318.15 K, x2 = 0.7959 | 0.303 | –
[2], 318.15 K, x2 = 0.8499 | 0.249 | –
[2], 318.15 K, x2 = 0.9018 | 0.179 | –
[2], 318.15 K, x2 = 0.9554 | 0.0973 | –
